Measured values published in patent publication US20220233652A1, “Pharmaceutical Compositions Comprising Integration-Promoting Peptides” (priority 2018, published 2022).
Like-named read-outs stand apart in the source and are kept apart here.

Test system: HIV-1
Procedure: This is a phase I/IIa pilot—Proof of Concept, dose escalation study.
Three cohorts of 3-6 patients (per cohort) received twice a week the Multiple Ascending Doses (MAD*) for up to 8 weeks to evaluate safety, clinical dose and preliminary efficacy for a duration of up to 6 weeks. Interim analysis was performed to decide on the safety of the low dose and continue to a higher dose SC administration. Study Duration: 1 year including screening, treatment and post treatment follow up
Cohort 1: Three to six (3-6) patients, each one received twice a week the decided MAD* for up to 8 weeks (up to 16 doses per patient). Subcutaneous dose: LOW; 0.05, mg/kg, with escalation to 0.2 mg/kg body weight at week 2-4. Cohort 2: Three to six (3-6) patients, each one received twice a week the decided MAD* for up to 8 weeks (up to 16 doses per patient). Subcutaneous dose: MEDIUM; 0.1 mg/kg, with escalation to 0.3 mg/kg body weight at week 2-4. Cohort 3: Three to six (3-6) patients, each one received twice a week the decided MAD* for up to 8 weeks (up to 16 doses per patient). Subcutaneous dose: HIGH; 0.2 mg/kg, with escalation to 0.4 mg/kg body weight at week 2-4. Interim analysis was performed to decide on the safety of all cohorts' doses and continue to a higher dose, up to 0.2 mg/kg for Cohort 1, up to 0.3 mg/kg for Cohort 2 and up to 0.4 mg/kg for Cohort 3, SC administration.
Effectiveness of Gammora assessed by reduced Viral load (by 0.5 LOG; Viral Suppression). • 1. Mean Change in CD4+ Cell Count as a Measure of Efficacy and Safety. • 2. Reduced viral protein p24 antigen. • 3. Functional Assessment of HIV Infection (FAHI) questionnaire.

[1] = 5 weeks INS 0.2-0.4 mg/kg SC twice a week + lopinavir 800 mg plus ritonavir 200 mg daily

WTAVQMAVFIHNFKRK [INS]
HIV-1 RNA count [1]: below 300 copies/mL | Reduction in viral load from baseline [1]: up to 99% | Reduction in viral load from baseline (most patients, first 5 weeks of SC administration, INS alone): up to 90%
